Values quoted from earlier work as cited in US20080031860A1 (N.V. NUTRICIA, priority 2003, published 2008).

Key:
[1] = after 4 weeks of therapy
[2] = intake of 10-20 mg per day

| Compound | appetite [1] | reported adverse effect [2] |
| --- | --- | --- |
| CCCCCc1cc(O)c2c(c1)OC(C)(C)[C@@H]1CCC(C)=C[C@@H]21 [dronabinol] | significantly stimulates appetite |  |
| calcium D-pantothenate |  | diarrhea |
